Measurements reported in paper PMC12787479, “Steam Explosion as a Green Pretreatment Strategy to Enhance Total Phenolics Release and Biological Activities in Potentilla discolor Bunge Stems” (Molecules, 2025).
Marks after values point to notes of the source that are not given here.

Columns and labels:
Type in all cases: biochemical
[1] = DPPH free radical scavenging assay; conditions: extract obtained under optimized extraction conditions; 25 °C, 30 min, 517 nm
Protocol: DPPH ethanol solution (0.12 μmol/mL, 0.1 mL) was mixed with 0.1 mL different concentrations of PDB stem solutions (10, 25, 50, 75, and 100 μg/mL). Incubation was carried out in a dark environment at 25 °C for 30 min. […] The absorbance values were measured at 517 nm using an enzyme meter. All experiments were performed in triplicate, and results are expressed as mean ± standard deviation (SD). The calculation formula was as follows.(3) Radical scavenging rate %=[…]×100% where Ac was the absorbance of blank group; As was the absorbance of PDB stem group, respectively. […] All data were represented as mean ± standard deviation (SD) and the significant statistical differences was determined by a one-way ANOVA test using SPSS version 22.0. Different lowercase letters were regarded as significant differences (p < 0.05).

[2] = ABTS free radical scavenging assay; conditions: extract obtained under optimized extraction conditions; 30 min dark, 734 nm
Protocol: The solution was then diluted fivefold before use. […] For standard curve construction, ascorbic acid solutions at concentrations of 2, 4, 8, 15, 25, and 50 μg/mL were treated in the same manner. All experiments were performed in triplicate, and results were expressed as mean ± SD. The absorbance values were measured at 734 nm, and the scavenging rate was calculated using Equation (1). […] All data were represented as mean ± standard deviation (SD) and the significant statistical differences was determined by a one-way ANOVA test using SPSS version 22.0. Different lowercase letters were regarded as significant differences (p < 0.05).

[3] = FRAP reduction assay (ferric reducing antioxidant power); conditions: absorbance at 700 nm at a concentration of 600 μg/mL
Protocol: Extraction solutions of PDB stems at 0.4, 0.6, 0.8, 1.0, or 1.2 mg/mL (0.1 mL each) were mixed with an equal volume (0.1 mL) of 30 μmol/mL K3[Fe(CN)6] solution (1:1, v/v) and incubated at 50 °C for 20 min. Then, 0.2 mL of 10% (w/v) trichloroacetic acid (TCA) solution was added, and the resulting mixture was defined as solution A. Finally, 0.1 mL of solution A was mixed with 0.1 mL of 3.4 μmol/mL FeCl3 solution, and the absorbance of the mixture was measured at 700 nm. […] All experiments were performed in triplicate, and results are expressed as mean ± SD.

O=C1O[C@H]([C@@H](O)CO)C(O)=C1O [Ascorbic acid]
DPPH·IC50 [1]: 3.47 ± 0.02 ^a μg/mL | ABTS·IC50 [2]: 20.71 ± 0.42 ^a μg/mL | FRAP (A700, 600 μg/mL) [3]: 3.17 ± 0.05 ^a | FRAP (A700, 600 μg/mL) ([3]; listed as ascorbic acid): 3.17 ± 0.05
